According to patent publication US20250353873A1, “COMPOUNDS AND METHODS FOR MODULATING APOE EXPRESSION” (Ionis Pharmaceuticals, Inc., priority 2024, published 2025):
pIC50: −log10 of the molar value. Strand notation (5' to 3'): a small letter for the sugar, then the base; units joined by * are phosphorothioate-linked, units joined directly phosphodiester-linked; [ ] holds rarer units or linkages, { } end groups; capitals alone tell only the bases. [ms] = mesyl phosphoramidate linkage; e = 2'-O-(2-methoxyethyl) (MOE); k = constrained ethyl (cEt); [5mC] = 5-methylcytosine; d = 2'-deoxy (DNA)

Legend:
human APOE RNA [1] = assay: Dose-dependent inhibition of human APOE RNA in HepG2 cells, electroporation, 50,000 cells per well, RT-PCR normalized to GAPDH (Example 4, Tables 8-10); format: cell-based; details: HepG2 cells, electroporation, Table 8; for APOE RNA (% UTC) 5 nM / APOE RNA (% UTC) 13 nM / APOE RNA (% UTC) 33 nM / APOE RNA (% UTC) 82 nM / APOE RNA (% UTC) 205 nM / APOE RNA (% UTC) 512 nM / pIC50: 24-hour treatment; for APOE RNA (% UTC) 1,280 nM: 24-hour treatment, 1,280 nM; for APOE RNA (% UTC) 3,200 nM: 24-hour treatment, 3,200 nM; for APOE RNA (% UTC) 8,000 nM: 24-hour treatment, 8,000 nM; for APOE RNA (% UTC) 20,000 nM: 24-hour treatment, 20,000 nM; for pIC50: reduction of human APOE RNA
In short: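 HepG2 cells, 50,000 per well, electroporated with modified oligonucleotide at various concentrations. APOE RNA quantified by RT-PCR with human primer probe set RTS3073, normalized to GAPDH. Values are percent APOE RNA relative to untreated control cells.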

human APOE RNA [2] = assay: Dose-dependent inhibition of human APOE RNA in differentiated SH-SY5Y cells, free uptake, 5 days (Example 5); format: cell-based; details: 5 days (Table 14)
In short: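 Differentiated SH-SY5Y cells (10,000/well) treated by free uptake with graded oligonucleotide concentrations for 5 days. APOE RNA quantified with primer probe set RTS3073, normalized to PPIA, expressed as % untreated control; IC50 calculated.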

human APOE RNA [3] = assay: Activity in APOE C57BL/6NTac-Apoeem7250 knock-in mice, single ICV bolus, 4 weeks (Example 10); format: in vivo; details: single ICV bolus 300 μg, 4 weeks post treatment, normalized to mouse Ppia
In short: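 Knock-in mice (2–4 per group) received one 300 μg ICV bolus of oligonucleotide or PBS. After four weeks, human APOE RNA in cortex and spinal cord measured by RT-qPCR (primer probe set RTS3073), normalized to mouse Ppia, expressed as % of PBS controls.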

human APOE RNA [4] = assay: Activity in APOE C57BL/6NTac-Apoeem7250 knock-in mice, single ICV bolus, 8 weeks (Example 11); format: in vivo; details: single ICV bolus 300 μg, 8 weeks post treatment, normalized to mouse Ppia
In short: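 Human APOE knock-in C57BL/6NTac mice given one ICV bolus of 300 μg oligonucleotide; PBS-dosed group as control. At 8 weeks, cortex and spinal cord RNA measured by qRT-PCR (human probe RTS3073), normalized to mouse Ppia, expressed as % of PBS control.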

human APOE RNA [5] = assay: Activity in APOE C57BL/6NTac-Apoeem7250 knock-in mice, single ICV bolus, 20 weeks (Example 13); format: in vivo; details: single ICV bolus 300 μg, 20 weeks post treatment, normalized to mouse Ppia
In short: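 Knock-in mice (n=4) given a single ICV bolus of 300 μg oligonucleotide, PBS as control. After 20 weeks, human APOE RNA in cortex and spinal cord measured by RT-qPCR, normalized to mouse Ppia, expressed as % of PBS-treated animals.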

Row | Substance | APOE RNA (% UTC) 5 nM (human APOE RNA [1]) [% UTC] | APOE RNA (% UTC) 13 nM (human APOE RNA [1]) [% UTC] | APOE RNA (% UTC) 33 nM (human APOE RNA [1]) [% UTC] | APOE RNA (% UTC) 82 nM (human APOE RNA [1]) [% UTC] | APOE RNA (% UTC) 205 nM (human APOE RNA [1]) [% UTC] | APOE RNA (% UTC) 512 nM (human APOE RNA [1]) [% UTC] | APOE RNA (% UTC) 1,280 nM (human APOE RNA [1]) [% UTC] | APOE RNA (% UTC) 3,200 nM (human APOE RNA [1]) [% UTC] | APOE RNA (% UTC) 8,000 nM (human APOE RNA [1]) [% UTC] | APOE RNA (% UTC) 20,000 nM (human APOE RNA [1]) [% UTC] | pIC50 (human APOE RNA [1]) | APOE RNA (% UTC) (human APOE RNA [2]; 5 nM) | APOE RNA (% UTC) (human APOE RNA [2]; 13 nM) | APOE RNA (% UTC) (human APOE RNA [2]; 33 nM) | APOE RNA (% UTC) (human APOE RNA [2]; 82 nM) | APOE RNA (% UTC) (human APOE RNA [2]; 205 nM) | APOE RNA (% UTC) (human APOE RNA [2]; 512 nM) | APOE RNA (% UTC) (human APOE RNA [2]; 1,280 nM) | APOE RNA (% UTC) (human APOE RNA [2]; 3,200 nM) | APOE RNA (% UTC) (human APOE RNA [2]; 8,000 nM) | also measured
1 | 1785599: modified oligonucleotide complementary to human APOE RNA (k[5mC]*kT*kT*dG[ms]dG[ms]dT[ms]dG[ms]dA[ms]dA[ms]dT[ms]d[5mC]*dT*dT*dT*dA*dT*kT*kA*dA[ms]kA; antisense) [compound 1785599] | 116 | 116 | 100 | 87 | 65 | 48 | 43 | 21 | 9 | 2 | 6.19 | 77 | 61 | 72 | 60 | 46 | 20 | 21 | 17 | 12 | APOE RNA (% UTC) (human APOE RNA [2]; 20,000 nM): 6 % UTC; pIC50 (human APOE RNA [2]): 7.00; APOE RNA (% control) Cortex (human APOE RNA [3]): 32 % control; APOE RNA (% control) Spinal Cord (human APOE RNA [3]): 38 % control; APOE RNA (% control) Cortex (human APOE RNA [4]): 26 % control; APOE RNA (% control) Spinal Cord (human APOE RNA [4]): 34 % control; APOE RNA (% control) Cortex (human APOE RNA [5]): 55 % control; APOE RNA (% control) Spinal Cord (human APOE RNA [5]): 20 % control
2 | 1778128: modified oligonucleotide complementary to human APOE RNA (eA*e[5mC]eTeTkGkG*dT*dG[ms]dA[ms]dA*dT*d[5mC]*dT*dT*dT*dA[ms]kTeT*eA*eA; antisense) [compound 1778128] | 81 | 83 | 66 | 53 | 39 | 28 | 22 | 9 | 8 | 5 | 7.00 | 91 | 51 | 99 | 63 | 74 | 32 | 30 | 40 | 33 | APOE RNA (% UTC) (human APOE RNA [2]; 20,000 nM): 23 % UTC; pIC50 (human APOE RNA [2]): 6.28; APOE RNA (% control) Cortex (human APOE RNA [3]): 31 % control; APOE RNA (% control) Spinal Cord (human APOE RNA [3]): 40 % control; APOE RNA (% control) Cortex (human APOE RNA [4]): 27 % control; APOE RNA (% control) Spinal Cord (human APOE RNA [4]): 25 % control; APOE RNA (% control) Cortex (human APOE RNA [5]): 60 % control; APOE RNA (% control) Spinal Cord (human APOE RNA [5]): 22 % control
3 | 1778131: modified oligonucleotide complementary to human APOE RNA (eA*e[5mC]eTeTeGkG*dT*dG[ms]dA[ms]dA*dT*d[5mC]*dT*dT*dT*dA[ms]kTkT*eA*eA; antisense) [compound 1778131] | 104 | 117 | 101 | 78 | 71 | 50 | 35 | 28 | 7 | 5 | 6.20 | 69 | 103 | 89 | 69 | 64 | 31 | 45 | 55 | 25 | APOE RNA (% UTC) (human APOE RNA [2]; 20,000 nM): 12 % UTC; pIC50 (human APOE RNA [2]): 6.16; APOE RNA (% control) Cortex (human APOE RNA [3]): 29 % control; APOE RNA (% control) Spinal Cord (human APOE RNA [3]): 49 % control; APOE RNA (% control) Cortex (human APOE RNA [4]): 29 % control; APOE RNA (% control) Spinal Cord (human APOE RNA [4]): 24 % control; APOE RNA (% control) Cortex (human APOE RNA [5]): 65 % control; APOE RNA (% control) Spinal Cord (human APOE RNA [5]): 43 % control
